Biological target: T1, hTRPC5 (Homo sapiens, UniProt Q9UL62)
T1 construct: expressed in transfected cells; host or cells: HEK293 TREx cells with inducible TRPC5 expression
T1 sequence (Q9UL62 1-973): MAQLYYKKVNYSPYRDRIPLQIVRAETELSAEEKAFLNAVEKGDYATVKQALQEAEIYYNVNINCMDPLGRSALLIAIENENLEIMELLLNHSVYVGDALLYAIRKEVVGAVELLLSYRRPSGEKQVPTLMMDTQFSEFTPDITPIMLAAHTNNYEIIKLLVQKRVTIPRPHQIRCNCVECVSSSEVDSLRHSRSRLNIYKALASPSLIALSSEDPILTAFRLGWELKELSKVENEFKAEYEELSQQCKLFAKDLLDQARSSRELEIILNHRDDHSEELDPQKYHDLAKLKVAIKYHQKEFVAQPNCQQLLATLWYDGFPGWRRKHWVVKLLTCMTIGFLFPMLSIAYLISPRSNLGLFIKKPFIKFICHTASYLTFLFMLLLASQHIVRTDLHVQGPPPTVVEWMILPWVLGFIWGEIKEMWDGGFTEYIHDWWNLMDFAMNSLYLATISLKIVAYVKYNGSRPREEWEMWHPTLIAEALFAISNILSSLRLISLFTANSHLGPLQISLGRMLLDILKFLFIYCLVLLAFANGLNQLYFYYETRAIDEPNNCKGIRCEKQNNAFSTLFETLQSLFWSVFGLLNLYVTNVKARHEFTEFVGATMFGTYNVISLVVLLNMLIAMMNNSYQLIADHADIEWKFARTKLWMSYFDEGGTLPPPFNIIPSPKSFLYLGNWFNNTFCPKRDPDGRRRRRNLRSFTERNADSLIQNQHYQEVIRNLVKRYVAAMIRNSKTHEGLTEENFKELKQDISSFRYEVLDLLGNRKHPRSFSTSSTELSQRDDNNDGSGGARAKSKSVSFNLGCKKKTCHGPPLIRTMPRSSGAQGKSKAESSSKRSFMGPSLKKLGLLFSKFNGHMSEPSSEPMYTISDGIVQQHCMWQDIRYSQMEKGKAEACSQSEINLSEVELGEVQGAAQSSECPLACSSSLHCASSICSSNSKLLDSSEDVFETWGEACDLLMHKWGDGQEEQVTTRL
Assay: Whole-cell patch clamp, block of LaCl3-activated TRPC5 inward current
Type: cell-based
Details: TRPC5-expressing HEK293 TREx cells, 80 μM LaCl3, inward current, IC50 estimated from 5 μM and 500 nM, read-out: hTRPC5 Patch La3+ Inwd (nM) (All Batches)
Protocol: In certain embodiments, exemplary compounds of Formula I and Formula II include the compounds described in Table 1 and in the Examples. A compound described herein may be tested for its ability to block both inward and outward currents through the TRPC5 channel, e.g., by an assay as described in Example 1. For example, IC50 of a compound of Formula I or Formula II was estimated by testing the compound at 5 μM and 500 nM. […] IC50 for a compound of Formula I or Formula II between 500 nM and 5 μM was similarly estimated. As shown, “A” refers to an IC50<100 nM. “B” refers to an IC50 between 100 nM and 500 nM. “C” refers to an IC50 between 500 nM and 1000 nM. “D” refers to an IC50 between 1 μM and 2 μM. “E” refers to an IC50 between 2 μM and 10 μM. “F” refers to […]. “ND” refers to compounds wherein the IC50 was not determined.
Patch clamp experiments permit the detection of currents through the TRPC5 channel in the cell line described above. In normal whole-cell patch clamp recordings, a glass electrode is brought into contact with a single cell and a high-resistance (gigaohm) seal is established with the cell membrane. The membrane is then ruptured to achieve the whole-cell configuration, permitting control of the voltage of the cell membrane and measurement of currents flowing across the membrane using the amplifier attached to the electrode and resulting in the replacement of cytoplasm with the pipette solution. A perfusion system permits control of the extracellular solution, including the addition of blockers and activators of the current. The current can be activated by including 1.4 μM free Ca^2+ in the pipette (intracellular) solution, and 80 μM LaCl3 in the extracellular solution.
TRPC5 cells were induced 20-48 hours, removed from growth plates, and replated at low density (to attain good single-cell physical separation) on glass coverslips for measurement. In some cases, cells were grown in low density overnight on glass coverslips. Patch clamp recordings were made in the whole-cell mode with a holding potential of −40 mV. Every 5 seconds, a voltage ramp was applied from −120 to +100 mV, 400 ms in duration. Currents elicited were quantified at −80 mV and +80 mV. The internal solution consisted of 140 mM cesium aspartate, 10 mM HEDTA, 2 mM CaCl2, 2.27 mM MgCl2 and 10 mM HEPES, pH 7.2, with 1,400 nM calculated free Ca^2+. The external solution consisted of 150 mM NaCl, 4.5 mM KCl, 1 mM MgCl2, 2 mM CaCl2, 10 mM HEPES, 10 mM glucose, 1 mM EGTA, pH 7.4. Upon addition of LaCl3, TRPC5 current was induced only in TRPC5-expressing cells and not in parental HEK293 TREx cells. Removal of the LaCl3 stimulus causes most of the current to go away. Potential blockers were tested for ability to block both inward and outward currents in the continued presence of LaCl3.
IC50 of a compound of Formula I or Formula II was estimated by testing the compound at 5 μM and 500 nM. […] IC50 for a compound of Formula I or Formula II between 500 nM and 5 μM was similarly estimated.

CCCOCCc1nc2c(c(=O)n(C)c(=O)n2C)n1Cc1cccc(F)c1 [Compound 92]
IC50: 2000 to 10000 nM

CCCOCCc1nc2c(c(=O)n(C)c(=O)n2C)n1Cc1ccc(Cl)cc1 [Compound 93]
IC50: 500 to 1000 nM

CCCOCCc1nc2c(c(=O)n(C)c(=O)n2C)n1Cc1ccc(C)cc1 [Compound 94, 1,3-dimethyl-7-(4-methylbenzyl)-8-(2-propoxyethyl)-1H-purine-2,6(3H,7H)-dione]
IC50: 2000 to 10000 nM

CCCOCCc1nc2c(c(=O)n(C)c(=O)n2C)n1Cc1ccc(Br)cc1 [Compound 95, 7-(4-bromobenzyl)-1,3-dimethyl-8-(2-propoxyethyl)-1H-purine-2,6(3H,7H)-dione]
IC50: 1000 to 2000 nM

CCOC(=O)CC(C)(C)c1nc2c(c(=O)n(C)c(=O)n2C)n1Cc1cccc(Br)c1 [Compound 96, Ethyl 3-(7-(3-bromobenzyl)-1,3-dimethyl-2,6-dioxo-2,3,6,7-tetrahydro-1H-purin-8-yl)-3-methylbutanoate]
IC50: 500 to 1000 nM

CCOC(=O)C(C)(C)Cc1nc2c(c(=O)n(C)c(=O)n2C)n1Cc1cccc(Br)c1 [Compound 97, Ethyl 3-(7-(3-bromobenzyl)-1,3-dimethyl-2,6-dioxo-2,3,6,7-tetrahydro-1H-purin-8-yl)-2-2-dimethylpropanoate]
IC50: 100 to 500 nM

CCCCC(O)c1nc2c(c(=O)n(C)c(=O)n2C)n1Cc1cccc(Br)c1 (stereo not shown) [Compound 98]
IC50: 2000 to 10000 nM

CCCOCCOc1nc2c(c(=O)n(C)c(=O)n2C)n1Cc1cccc(Br)c1 [Compound 99, 7-(3-bromobenzyl)-1,3-dimethyl-8-(2-propoxyethoxy)-1H-purine-2,6(3H,7H)-dione]
IC50: 100 to 500 nM

CCc1coc(C(C)(C)Sc2nc3c(c(=O)n(C)c(=O)n3C)n2Cc2cccc(Br)c2)n1 [Compound 100, 7-(3-bromobenzyl)-8-(2-(4-ethyloxazol-2-yl)propan-2-ylthio)-1,3-dimethyl-1H-purine-2,6(3H,7H)-dione]
IC50: 100 to 500 nM

Cn1c(=O)c2c(nc(Cc3cccc(C#N)c3)n2Cc2cccc(Br)c2)n(C)c1=O [Compound 101]
IC50: 2000 to 10000 nM

CCOC(=O)c1cccc(Cc2nc3c(c(=O)n(C)c(=O)n3C)n2Cc2cccc(Br)c2)c1 [Compound 102, ethyl 3-((7-(3-bromobenzyl)-1,3-dimethyl-2,6-dioxo-2,3,6,7-tetrahydro-1H-purin-8-yl)methyl)benzoate]
IC50: 1000 to 2000 nM

Cc1coc(-c2cccc(Oc3nc4c(c(=O)n(C)c(=O)n4C)n3Cc3cccc(Br)c3)c2)n1 [Compound 103, 7-(3-bromobenzyl)-1,3-dimethyl-8-(3-(4-methyloxazol-2-yl)phenoxy)-1H-purine-2,6(3H,7H)-dione]
IC50: 2000 to 10000 nM

Cc1coc(-c2cccc(Cc3nc4c(c(=O)n(C)c(=O)n4C)n3Cc3cccc(Br)c3)c2)n1 [Compound 104]
IC50: 2000 to 10000 nM

CCCCC(=O)c1nc2c(c(=O)n(C)c(=O)n2C)n1Cc1cccc(Br)c1 [Compound 105, 7-(3-bromobenzyl)-1,3-dimethyl-8-pentanoyl-1H-purine-2,6(3H,7H)-dione]
IC50: < 100 nM

CCc1coc(CSc2nc3c(c(=O)n(C)c(=O)n3C)n2Cc2cccc(OC(F)(F)F)c2)n1 [Compound 106, 8-((4-ethyloxazol-2-yl)methylthio)-1,3-dimethyl-7-(3-(trifluoromethoxy)benzyl)-1H-purine-2,6(3H,7H)-dione]
IC50: 100 to 500 nM

CCCOCCc1nc2c(c(=O)n(C)c(=O)n2C)n1Cc1cccc(Cl)c1 [Compound 107]
IC50: 500 to 1000 nM

CCCOCCc1nc2c(c(=O)n(C)c(=O)n2C)n1Cc1ccc(F)cc1 [Compound 108]
IC50: 2000 to 10000 nM

CCCOCCc1nc2c(c(=O)n(C)c(=O)n2C)n1Cc1ccc(OC(F)(F)F)cc1 [Compound 109]
IC50: 1000 to 2000 nM

Cn1c(=O)c2c(nc(Oc3cccc(Cl)c3)n2Cc2cccc(Br)c2)n(C)c1=O [Compound 110, 7-(3-bromobenzyl)-8-(3-chlorophenoxy)-1,3-dimethyl-1H-purine-2,6(3H,7H)-dione]
IC50: 100 to 500 nM

Cn1c(=O)c2c(nc(Oc3cccc(F)c3)n2Cc2cccc(Br)c2)n(C)c1=O [Compound 111, 7-(3-bromobenzyl)-8-(3-fluorophenoxy)-1,3-dimethyl-1H-purine-2,6(3H,7H)-dione]
IC50: 1000 to 2000 nM

Cn1c(=O)c2c(nc(Oc3cccc(C#N)c3)n2Cc2cccc(Br)c2)n(C)c1=O [Compound 112, 3-(7-(3-bromobenzyl)-1,3-dimethyl-2,6-dioxo-2,3,6,7-tetrahydro-1H-purin-8-yloxy)benzonitrile]
IC50: 2000 to 10000 nM

CCCc1cccc(Oc2nc3c(c(=O)n(C)c(=O)n3C)n2Cc2cccc(Br)c2)c1 [Compound 113, 7-(3-bromobenzyl)-1,3-dimethyl-8-(3-propylphenoxy)-1H-purine-2,6(3H,7H)-dione]
IC50: < 100 nM

CC(=O)c1cccc(Oc2nc3c(c(=O)n(C)c(=O)n3C)n2Cc2cccc(Br)c2)c1 [Compound 114, 8-(3-acetylphenoxy)-7-(3-bromobenzyl)-1,3-dimethyl-1H-purine-2,6(3H,7H)-dione]
IC50: 1000 to 2000 nM

Cn1c(=O)c2c(nc(Oc3cccc(OC(F)(F)F)c3)n2Cc2cccc(Br)c2)n(C)c1=O [Compound 115, 7-(3-bromobenzyl)-1,3-dimethyl-8-(3-(trifluoromethoxy)phenoxy)-1H-purine-2,6(3H,7H)-dione]
IC50: < 100 nM

CC(Cc1nc2c(c(=O)n(C)c(=O)n2C)n1Cc1cccc(Br)c1)C(=O)O (stereo not shown) [Compound 117, 3-(7-(3-Bromobenzyl)-1,3-dimethyl-2,6-dioxo-2,3,6,7-tetrahydro-1H-purin-8-yl)-2-methylpropanoic acid]
IC50: 2000 to 10000 nM

CCCOCCc1nc2c(c(=O)n(C)c(=O)n2C)n1Cc1ccc(C#N)cc1 [Compound 118]
IC50: 2000 to 10000 nM

CCCOCCc1nc2c(c(=O)n(C)c(=O)n2C)n1Cc1cccc(C#N)c1 [Compound 119]
IC50: 2000 to 10000 nM

CCCC(=O)CCOc1nc2c(c(=O)n(C)c(=O)n2C)n1Cc1cccc(Br)c1 [Compound 120]
IC50: 2000 to 10000 nM

CCCOCCc1nc2c(c(=O)n(C)c(=O)n2C)n1Cc1cccc(C(N)=O)c1 [Compound 121]
IC50: 2000 to 10000 nM

CCCC(O)C(C)(C)Sc1nc2c(c(=O)n(C)c(=O)n2C)n1Cc1cccc(Br)c1 (stereo not shown) [Compound 122, 7-(3-bromobenzyl)-8-(3-hydroxy-2-methylhexan-2-ylthio)-1,3-dimethyl-1H-purine-2,6(3H,7H)-dione]
IC50: < 100 nM

C=C(CC(=O)OCC)c1nc2c(c(=O)n(C)c(=O)n2C)n1Cc1cccc(Br)c1 [Compound 123, ethyl 3-(7-(3-bromobenzyl)-1,3-dimethyl-2,6-dioxo-2,3,6,7-tetrahydro-1H-purin-8-yl)but-3-enoate]
IC50: 1000 to 2000 nM

Reference: patent publication US20160145257A1, “SUBSTITUTED XANTHINES AND METHODS OF USE THEREOF” (Hydra Biosciences, Inc., priority 2013, published 2016)
